# Reference: a melting point compilation (Tetko et al.; mined from patent text by program, amines drawn as free bases though some values may be those of a salt)
row,SMILES,melting point [°C]
1,CS(=O)(=O)c1ccc(C(CC2CCCC2)C(=O)Nc2ccccn2)cc1S(C)(=O)=O (stereo not given),107 to 110
2,COc1cc(C(=O)N2Cc3ccc(C(=O)NCc4cccnc4)n3Cc3ccccc32)ccc1-c1ccccc1C,165 to 167
3,CC(C)(COc1ccccc1)C(=O)c1ccc(Br)cc1,73 to 74
4,CCC1(C(NC(=O)c2ccc(Cl)cc2)NC(=NC#N)Nc2cccnc2)COCOC1 (stereo not given),194 to 195
5,COc1ccc(Cl)cc1C(=O)Nc1ccc(CC(=O)O)cc1,152
6,COc1ccc(CC(C(=O)n2ccnc2)C(C)(C)C)cc1 (stereo not given),89.5 to 91
7,COc1cc(C=O)cc(OC)c1OCc1ccc([N+](=O)[O-])cc1,148 to 149
8,C=CCN1CCC(Nc2ccc(Cl)cc2)CC1,90
9,CS(=O)c1ccc(-n2cnc3ccc(-c4nnc(N)o4)cc32)cc1 (stereo not given),290 to 291
10,CCn1cc(C(=O)O)c(=O)cc1-c1cccnc1,209 to 210
11,CN(C)C(=O)Oc1ccc(C[C@H](NC(=O)Nc2ccccc2S(=O)(=O)c2ccccc2)C(=O)O)cc1,115
12,ON=C(Cl)c1ccc(F)cc1,74.5 to 75
13,CC(=O)C1(c2cccc(OCc3ccc4c(ccc(=O)n4C)c3)c2)CCOCC1,125 to 126
14,CCN(CC)CCOC(=O)C1=C(C)NC(C)=C(c2nnco2)C1c1cccc(Cl)c1Cl (stereo not given),142 to 144
15,Cc1ccc(-c2cc(C(=O)/C=C/c3ccc(C(=O)O)cc3)cc3c2C(C)(C)CCC3(C)C)cc1,242
16,CC(=O)OC1CC2C=CC3C4CCC(C(C)CCCC(C)C)C4(C)CCC3C2(C)C(OC(C)=O)C1 (stereo not given),116 to 118
17,CCCCc1ccc(CC(Cl)C(=O)O)cc1 (stereo not given),52.7 to 53.6
18,NC(=O)c1sc2ncnc(-c3cccc(NC(=O)Nc4ccccc4C(F)(F)F)c3)c2c1N,172 to 175
19,COc1cc(-c2csc(-c3ccccc3)n2)cc2oc(=O)c(C)c(C)c12,152 to 154
20,Cc1nc(N2CCN(CC3CC3(F)F)C2=O)sc1C(=O)NCc1cccnc1 (stereo not given),169 to 171
21,CCCCOCCOc1ccc(-c2cnc3c(c2)C=C(C(=O)O)CCCN3CCC)cc1,123 to 125
22,C=CC[C@@H](CO)[C@@H](O)[C@H](O)C(=O)CO,112 to 113
23,Cn1cnc(S(=O)(=O)Nc2ccc(OCCN3CCN(c4nsc5ccccc45)CC3)cc2)c1,176
24,Cn1c(C(=O)OC(C)(C)C)c(Br)c2cc(OCc3ccccc3)ccc21,97 to 99
25,CCC(O)c1ccc(-c2ccc(Cl)cc2)cc1 (stereo not given),114 to 116

row,SMILES,melting point [°C]
1,CCOC(=O)c1ccc(NC(=O)C=CC=C(c2ccc(Cl)cc2)c2ccc(Cl)cc2)cc1,216 to 218
2,O=C(Cl)N1CC=C(c2ccccc2)CC1,63
3,CCNC(=O)Nc1ccc2c(c1)C(=O)N(CCO[N+](=O)[O-])CO2,142 to 144
4,Cc1c(Cl)ccc(C(=O)O)c1Cl,173 to 175
5,CC(C)=NOCc1nc2c(N)nc3cccnc3c2n1CC(C)C,173 to 175
6,CS(=O)(=O)Nc1ccc(CCN2CCN(C(=O)c3ccc4[nH]ccc4c3)CC2)cc1,94 to 97
7,Cc1cc(S(=O)(=O)Nc2ccc(N)cc2)c2c(C)ccc(C(C)C)cc1-2,88 to 90
8,CC(C)(C)c1ccc(COc2ccc(CSc3ccc(OCC(=O)O)c4c3CCC4)cc2)cc1,152 to 153
9,Nc1ccc(C(=O)c2cc(F)ccc2F)cc1,101 to 103
10,CC1(C)CC(OC(=O)c2ccccc2)CC(C)(C)N1OC(=NC1CCCCC1)NC1CCCCC1,50 to 57
11,CC(C)(C)OC(=O)N1CCC(c2ccc(N3C[C@H](CN)OC3=O)cc2F)CC1,136 to 137
12,BrC12CCCC(C1)C1CCC2C1 (stereo not given),57.5 to 58.5
13,N#CC1=C(n2cccc2)Oc2c(ccc3ccccc23)C1c1cccc([N+](=O)[O-])c1 (stereo not given),184 to 185
14,CCCCC/C=C\C/C=C\C/C=C\C/C=C\CCCC(=O)N[C@@H](C)C(=O)N[C@H](CCC(=O)O)C(=O)O,90
15,Fc1ccc(-c2c[nH]cn2)cc1,130 to 132
16,CCOC(=O)c1nc2c(=O)[nH]c3cc(C(F)(F)F)ccc3n2c1CN1CCN(C)CC1,255
17,Cc1cc(C)cc(-c2c(O)c3ccc(Cl)cc3[nH]c2=O)c1,369
18,COc1ccc(-c2cccc(-c3ccc(OC)c(F)c3)n2)cc1F,108
19,CC1(C)C(=O)N(c2ccc(C#N)c(C(F)(F)F)c2)C(=O)N1CC1OC1CN1C(=O)N(c2ccc(C#N)c(C(F)(F)F)c2)C(=O)C1(C)C (stereo not given),108 to 110
20,CCCCc1cn(C)cc(-c2cccc(C(F)(F)F)c2)c1=O,82.5 to 84
21,O=C(NNC(=O)c1occ(-c2ccccc2)c1-c1ccccc1)c1ccoc1,180 to 183
22,COc1ccc(C2OC(=O)NC2C)cc1OC (stereo not given),98 to 99
23,N#Cc1cc(-c2cc(C(F)F)c3cnn(C4CCCCO4)c3n2)ccc1N (stereo not given),192
24,CO[C@@]1(C)[C@@H](NC(=O)C(F)(F)F)CC(OC(=O)c2ccc([N+](=O)[O-])cc2)O[C@H]1C (stereo not given in full),180 to 181
25,Cn1nc(-c2cnc3[nH]cc(C(=O)NC4CCCOC4)c3n2)c2ccc(Cl)cc21 (stereo not given),320 to 323

row,SMILES,melting point [°C]
1,O=c1[nH]cnc2cc(Cl)c(Oc3ccc(Cl)cc3)cc12,250 to 252
2,O=Cc1cccc(Sc2ccc(O)cc2)c1O,97 to 98
3,CCOC(=O)C(Cl)=Cc1cc(Cl)ccc1-n1c(=O)c(Cl)c(C(F)(F)F)n(C)c1=O,160 to 164
4,Cc1cc(SC(C)c2cccc3cn(-c4ccc(C(F)(F)F)cc4)nc23)ccc1OCC(=O)O (stereo not given),62 to 64
5,N#Cc1c(N2CCCN(c3ccc(F)c(F)c3)CC2)cc[nH]c1=S,250 to 251
6,CC(=O)OC[C@H]1O[C@@H]2[C@@H](Sc3ccc(Cl)cc3N2CCCN(C)C)[C@@H](OC(C)=O)[C@@H]1OC(C)=O,149 to 151
7,CCCc1cc(=O)oc2c(C=O)c(O)c3c(c12)OC(C)(C)C=C3,116 to 117
8,Brc1cccc2c(-c3ccccc3)coc12,69.5 to 71.5
9,C=C(CCC)C(=O)c1ccc(OCC(=O)O)c(Cl)c1Cl,111 to 113
10,CN(C)CCCN(C=O)C1CCC2C3CCC4CCCCC4(C)C3CCC21C (stereo not given),122
11,CSc1nnc(-c2cc3c([nH]c2=O)CCN(Cc2ccccc2)C3)o1,215 to 217
12,CC(C)(C)c1nc2cc3c(cc2[nH]1)NC(=O)C3(C)C,> 300
13,Cc1cc(-n2ccc(OCc3ccccc3)cc2=O)sc1C(=O)NCc1cccc(F)c1,140 to 141
14,CCCCOc1cc(I)c(OCCCC)cc1I,86 to 87.5
15,O=C1COc2cc(F)c(N3N=C4CCCCC4C3=O)cc2N1Cc1ccccn1 (stereo not given),216 to 219
16,COC=NC(C#N)=C(N)C#N,138 to 139
17,COC1=CC2=CCC3C(C(F)CC4(C)C(=O)CCC34)C2CC1 (stereo not given),173
18,CC(C)NC(=O)OCC(=O)c1cccc(Br)c1,125 to 129
19,COc1cc2oc(=O)c(CCN3CCN(c4ccccc4)CC3)c(C)c2c(OC)c1OC,136 to 137
20,CCC(C)c1nn(-c2ccc(C(F)(F)F)cn2)cc1CCCO (stereo not given),72 to 73
21,O=C(O)C1=Cc2cc(Br)cc(Cl)c2OC1C(F)(F)F (stereo not given),221 to 222
22,CC(=O)Nc1ccc2nc(CN(C(C)C)C(C)C)ccc2c1,147 to 148
23,Clc1ccccc1-c1nc2cc(Cn3ccnc3)ccc2[nH]1,115
24,CNc1cc(F)ccc1C(=O)CS(C)(=O)=O,144 to 145
25,CCn1cc(C(=O)NCc2ccc(Cl)cc2)c(=O)c2cc(CCCCO)sc21,136 to 139

row,SMILES,melting point [°C]
1,O=C1CCC(N2Cc3c(OCc4ccc(CN5CCSCC5)cc4)cccc3C2=O)C(=O)N1 (stereo not given),134 to 136
2,CCCCOc1cc(C=C(C)C(=O)O)ccc1-c1cccc(CNCC(=O)c2ccccc2)c1,166
3,Cc1cc(C(N)=O)ccc1N,124
4,COC(=O)CCC(=O)c1cc(OC)ccc1OCC1CO1 (stereo not given),50 to 51.5
5,COC(=O)c1ccc(C#CCc2ccc3c(c2)C(C)(C)CCC3(C)C)cc1O,75 to 77
6,CCN(CC)C(=O)n1cnc(Sc2c(C)cccc2C)n1,111 to 112
7,COC(=O)c1cc(N)n[nH]1,134
8,CC(C(=O)O)c1ccc(-c2ccc(Cl)cc2F)c(O)c1 (stereo not given),145 to 149
9,CCc1cn(C2CC(O)C(CCC(=O)C(C)Oc3ccc(Cl)cc3Cl)O2)c(=O)[nH]c1=O (mixture of isomers),157 to 159
10,Nc1nc(N)nc(C2CC3CC2CC3c2nc(N)nc(N)n2)n1 (stereo not given),317 to 324
11,O=C1C=C(c2cccc(Cl)c2)CN(Cc2ccccc2)C1,143 to 145
12,COc1ccc(CN(CCN(C)CCCCCCNC(=O)NCCCOc2cccc(CN3CCCCC3)c2)c2ccccn2)cc1,75
13,COc1cc2c3c(ccc([N+](=O)[O-])c3c1[N+](=O)[O-])C(=O)N(O)C2=O,272 to 273
14,C=CCN(CC=C)C(=O)n1cnc(S(=O)(=O)CCOCC)n1,62 to 63
15,COc1cc2c(Nc3ccc(Sc4ccccn4)cc3)c(C#N)cnc2cc1F,231 to 233
16,COCCOc1cccc(-n2cc(-c3ccc(O)cc3)c3c(N)ncnc32)c1,103 to 112
17,CCCNCC(O)c1cccc(Cl)c1 (stereo not given),69.5 to 71
18,O=C1Nc2ccccc2NC2CCCC12 (stereo not given),191 to 212
19,Cc1ccc(C(CO)c2ccc(C(C)C)cc2)c(O)c1C (stereo not given),83 to 84
20,N#COc1ccc(C=CC(=O)c2ccc(OC#N)cc2)cc1,171 to 173
21,CCOC(=O)COc1ccc(C2C(C(=O)OCC)=C(C)N(C)C(C)=C2C(=O)OCC)cc1OC,84 to 85
22,CC(CCc1ccccc1)NCC(O)c1ccc(C(N)=O)s1 (stereo not given),108 to 116
23,CC(C)(CNc1ccnc2cc(Cl)ccc12)NCc1ccc(C(F)(F)F)cc1,145 to 147
24,O=C(CCc1cc(-c2ccccc2)nc2ccccc12)N1CCCC1,116
25,CC(C)(C)OC(=O)[C@@H]1CC[C@@H]2C=C[C@H]3CCN(C(=O)OC(C)(C)C)[C@@H]3C(=O)N21,147 to 149
